By melting point is commonly meant the temperature, or range, at which the solid turns liquid. For orientation: IC50 means the concentration needed to halve the response being measured.

Where “and” joins values, the source holds several entries; their conditions need not be identical. Identical values can stand only once.

27 compounds from publication PMC10385825, “Synthesis of Benzocycloalkanone-Based Michael Acceptors and Biological Activities as Antimalarial and Antitrypanosomal Agents” (Molecules, 2023) can be followed below.

Data set [1] concerns T. cruzi epimastigotes (Y strain). As to the kind of experiment: Trypanocidal activity, proliferation of T. cruzi epimastigotes (MTT). It counts as cell-based. Conditions: Trypanosoma cruzi, 96 h, read-out: %ITcP: T. cruzi (epimastigotes) % inhibition proliferation. On the procedure:
The trypanocidal activity of compounds 7–39 was evaluated on the viability of T. cruzi epimastigotes (Y Strain). Parasites were cultivated in LIT medium supplemented with 10% FBS. The MTT method was used with minor modifications. Next, 2 × 10^6 parasites/mL were seeded in a 96-well plate, adding 50 μM of each derivative dissolved in DMSO (final concentration remained below 1%). The plate was incubated for 96 h at 29 °C. Then, 5 mg mL^−^1 of 3-(4,5-dimethylthiazol-2-yl)-2,5-diphenyl tetrazolium bromide (MTT) was added and incubated in darkness for 4 h. After this time, acidic isopropanol (4N) was added and the plate was read at 540 nm in a spectrophotometer Synergy HT (Biotek). Benznidazole (50 µM) was used as a reference drug.

The test system of a further data set is VERO cells. As to the kind of experiment: Cytotoxicity assay in VERO cells (MTT). It counts as cell-based. Conditions: Chlorocebus sabaeus, 72 h. How it is done: The in vitro evaluations of compounds toxicity by MTT in VERO cells were performed as described in brief: VERO cells culture in DMEM, BSF 10%, were counted in suspension, seeded at 2 × 10^4 cells/well (100 μL) into a 96-well microplate, and incubated at 37 °C in a humidified 5% CO2 incubator for 24 h. After the incubation period, compounds were added in different concentrations: 50, 100, 150, 200, and 500 μM. The plate was incubated for 72 h in the same conditions. Then, 5 mg mL^−^1 of 3-(4,5-dimethylthiazol-2-yl)-2,5-diphenyl tetrazolium bromide (MTT) was added and incubated in darkness for 4 h. After this time, DMSO was added and the plate was read at 540 nm in a spectrophotometer Synergy HT (Biotek). The test was carried out in triplicate including untreated cells and reference drug controls.

For a further data set, the system named is β-hematin formation. As to the kind of experiment: Inhibition of β-hematin formation in vitro. Type of data set: biochemical. On the procedure: The assay was performed according to previously reported protocols. Hemin chloride (50 μL, 4 mM) in DMSO (5.2 mg mL^−1) was pipetted into 96-well microplates. Different concentrations (0.1–100 mM) of the compounds in DMSO were added in triplicate (50 μL) with a final concentration of 0.025 mM–25 mM/well. Water (50 μL) or DMSO (50 μL) were used as controls. […] Next, the plates were incubated at 37 °C for 48 h and subsequently centrifuged (4000 rpm × 15 min). The supernatant was washed twice with DMSO (200 μL) and resuspended in NaOH (200 μL, 0.2 N). The solubilized products were diluted (1:2) with NaOH (0.1 N), and the plates were read in an ELISA reader at 405 nm (Microplate Reader, BIORAD-550). The results are expressed as % IβHF.

Another data set relates to P. berghei ANKA. The data set is described as follows: Four-day suppressive test in P. berghei-infected mice. It counts as in vivo, Plasmodium berghei (male Balb-C mice). How it is done:
Male Balb-C mice with a weight of 18–22 g were fed with a commercial diet ad libitum under standard procedures of animal care following the aforementioned method approved by the Ethics Committee of the Institute of Immunology. The animals were infected with a rodent malaria strain of Plasmodium berghei ANKA. A million infected erythrocytes, in phosphate-buffered saline solution (PBS, 10 mM, pH 7.4, 0.1 mL), were inoculated ip to infect the animal. The parasitemia was inspected by continuous microscopic examination of Giemsa-stained smears.
One million P. berghei, injected in the caudal vein i.v, were used to infect the mice (n = 6). After two hours of inoculation, the compounds that were active in vitro were dissolved in DMSO (0.1 M) and subsequently diluted with Saline-Tween 20 solution (2%), and administered ip for 4 days (20 mg kg^−^1). The parasite load was evaluated on the fourth day by examining Giemsa-stained smears. Chloroquine (20 mg kg^−^1) was used as the positive control and saline solution as the negative control. Non-treated mice were used as a baseline control for survival times. The survival days and percentage of parasitemia were used to express the results.

For `O=C1/C(=C/c2ccc(OCc3ccccc3)cc2)Cc2cc(F)cc(F)c21` [compound 31, (E)-2-[4-(Benzyloxy)benzylidene]-5,7-difluoro-2,3-dihydroinden-1-one], the melting point fell in the range of 204 to 206 °C.

Consider `O=C1/C(=C/c2ccc(OCc3ccccc3)cc2)Cc2ccccc21` [compound 20, (E)-2-[4-(Benzyloxy)benzylidene]-2,3-dihydroinden-1-one], for which the melting point was 170 °C.

In the case of `COc1cccc2c1CC/C(=C\c1ccc(SCc3ccccc3)cc1)C2=O` [compound 33, (E)-2-[4-(Benzylthio)benzylidene]-3,4-dihydro-5-methoxynaphthalen-1(2H)-one], the inhibition at 50 µM in data set [1] came out at 51.1 ± 3.4%. Also, the IC50 with VERO cells is > 150 µM.

`Cc1cccc2c1C/C(=C\c1ccc(OCc3ccccc3)cc1)C2=O` [compound 27, (E)-2-[4-(Benzyloxy)benzylidene]-2,3-dihydro-4-methylinden-1-one] displayed a melting point of 127 to 129 °C.

In turn, `COc1ccc2c(c1)C/C(=C\c1ccc(SCc3ccccc3)cc1)C2=O` [compound 8, (E)-2-[4-(Benzylthio)benzylidene]-2,3-dihydro-5-methoxyinden-1-one] displayed a melting point of 166 to 168 °C.

Compound `O=C1/C(=C/c2ccc(SCc3ccccc3)cc2)Cc2ccc(Cl)cc21` [compound 17, (E)-2-[4-(Benzylthio)benzylidene]-6-chloro-2,3-dihydroinden-1-one] yielded a melting point of 204 °C.

`O=C1/C(=C/c2ccc(SCc3ccccc3)cc2)Cc2cc(Cl)ccc21` [compound 16, (E)-2-[4-(Benzylthio)benzylidene]-5-chloro-2,3-dihydroinden-1-one] yielded a melting point of 140 to 142 °C.

`O=C1/C(=C/c2ccc(SCc3ccccc3)cc2)Cc2cc3c(cc21)OCO3` [compound 14, (E)-2-[4-(Benzylthio)benzylidene]-2,3-dihydro-5,6-methylendioxyinden-1-one] yielded a melting point of 194 to 196 °C.

`O=C1/C(=C/c2ccc(OCc3ccccc3)cc2)Cc2cc(Cl)ccc21` [compound 28, (E)-2-[4-(Benzyloxy)benzylidene]-5-chloro-2,3-dihydroinden-1-one] displayed a melting point of 189 to 190 °C.

As for `COc1ccc2c(c1)C/C(=C\c1ccc(OCc3ccccc3)cc1)C2=O` [compound 21, (E)-2-[4-(Benzyloxy)benzylidene]-2,3-dihydro-5-methoxyinden-1-one], the melting point fell in the range of 141 to 142 °C.

Compound `COc1cc2c(c(OC)c1)C(=O)/C(=C/c1ccc(SCc3ccccc3)cc1)C2` [compound 13, (E)-2-[4-(Benzylthio)benzylidene]-2,3-dihydro-5,7-dimethoxyinden-1-one] displayed a melting point of 176 to 178 °C.

For the compound `O=C1/C(=C/c2ccc(OCc3ccccc3)cc2)Cc2c(Cl)cc(Cl)cc21` [compound 30, (E)-2-[4-(Benzyloxy)benzylidene]-4,6-dichloro-2,3-dihydroinden-1-one], the melting point is 202 to 203 °C.

`COc1ccc2c(c1)C(=O)/C(=C/c1ccc(SCc3ccccc3)cc1)C2` [compound 9, (E)-2-[4-(Benzylthio)benzylidene]-2,3-dihydro-6-methoxyinden-1-one] showed a melting point of 175 to 177 °C.

Turning to `O=C1/C(=C/c2ccc(SCc3ccccc3)cc2)Cc2c(Cl)cc(Cl)cc21` [compound 18, (E)-2-[4-(Benzylthio)benzylidene]-4,6-dichloro-2,3-dihydroinden-1-one], the melting point lay in the range of 181 to 183 °C.

Regarding `COc1ccc2c(c1)C(=O)/C(=C/c1ccc(SCc3ccccc3)cc1)CC2` [compound 35, (E)-2-[4-(Benzylthio)benzylidene]-3,4-dihydro-7-methoxynaphthalen-1(2H)-one], in data set [1], the inhibition at 50 µM was found to be 36.2 ± 6.1%. For the same compound, the IC50 in the data set with VERO cells is > 150 µM.

In turn, `O=C1/C(=C/c2ccc(SCc3ccccc3)cc2)Cc2cc(F)cc(F)c21` [compound 19, (E)-2-[4-(Benzylthio)benzylidene]-5,7-difluoro-2,3-dihydroinden-1-one] had a melting point of 170 to 172 °C. In the data set with VERO cells, the IC50 is > 150 µM.

On to `COc1cc2c(cc1OC)C(=O)/C(=C/c1ccc(OCc3ccccc3)cc1)C2` [compound 24, (E)-2-[4-(Benzyloxy)benzylidene]-2,3-dihydro-5,6-dimethoxyinden-1-one], for which the melting point is 207 to 208 °C.

Turning to `O=C(Cn1ccnc1[N+](=O)[O-])NCc1ccccc1` [Bnz, benznidazole, reference compound], in data set [1], the inhibition at 50 µM turned out to be 60 ± 2.9%. The IC50 with VERO cells was > 200 µM.

With `COc1ccc(OC)c2c1C/C(=C\c1ccc(OCc3ccccc3)cc1)C2=O` [compound 25, (E)-2-[4-(Benzyloxy)benzylidene]-2,3-dihydro-4,7-dimethoxyinden-1-one], the melting point lay in the range of 209 to 210 °C.

Regarding `COc1ccc2c(c1OC)C/C(=C\c1ccc(OCc3ccccc3)cc1)C2=O` [compound 23, (E)-2-[4-(Benzyloxy)benzylidene]-2,3-dihydro-4,5-dimethoxyinden-1-one], the melting point fell in the range of 167 to 168 °C.

As for `COc1ccc2c(c1)CC/C(=C\c1ccc(SCc3ccccc3)cc1)C2=O` [compound 34, (E)-2-[4-(Benzylthio)benzylidene]-3,4-dihydro-6-methoxynaphthalen-1(2H)-one], the melting point lay within 122 to 124 °C.

The compound `O=C1/C(=C/c2ccc(SCc3ccccc3)cc2)Cc2ccccc21` [compound 7, (E)-2-[4-(Benzylthio)benzylidene]-2,3-dihydroinden-1-one] yielded a melting point of 155 to 157 °C.

Consider `Cc1cccc2c1C/C(=C\c1ccc(SCc3ccccc3)cc1)C2=O` [compound 15, (E)-2-[4-(Benzylthio)benzylidene]-2,3-dihydro-4-methylinden-1-one], for which the melting point fell in the range of 167 to 169 °C.

For `O=C1/C(=C/c2ccc(SCc3ccccc3)cc2)CCc2ccccc21` [compound 32, (E)-2-[4-(Benzylthio)benzylidene]-3,4-dihydronaphthalen-1(2H)-one], the melting point was 99 to 100 °C. Further, in data set [1], the inhibition at 50 µM turned out to be 43.7 ± 6.7%. For the same compound, the IC50 in the data set with VERO cells is > 150 µM.

The compound `COc1ccc2c(c1)C(=O)/C(=C/c1ccc(OCc3ccccc3)cc1)C2` [compound 22, (E)-2-[4-(Benzyloxy)benzylidene]-2,3-dihydro-6-methoxyinden-1-one] gave a melting point of 178 to 179 °C.

For `CCN(CC)CCCC(C)Nc1ccnc2cc(Cl)ccc12` (stereo not shown) [CQ, chloroquine, reference compound], the “%IβHF: Percentage inhibition β-hematin formation” value with β-hematin formation (concentration of 10 μM) was 95.34%. In the data set on β-hematin formation (n = 3, read-out: IC50 (βHF) inhibition of β-hematin formation (± SEM)), the 50% inhibitory concentration (IC50) was found to be 0.18 ± 0.1 µM. The “Sd: Survival days (± SEM)” value in the data set with P. berghei ANKA (20 mg kg−1 ip once daily, days 1–4 post-infection, n = 6) was 28 ± 1.34 days and 28 ± 1.3 days. Moreover, the “%P: Percentage of parasitemia (± SEM)” value in the data set on P. berghei ANKA (fourth day post-infection, 20 mg kg−1 ip once daily for 4 days, n = 6) is 1.4 ± 0.54%. For the same compound, the Survival in the data set with P. berghei ANKA (surviving mice/total, 20 mg kg−1 ip for 4 days) is listed as 5/6.

As for `O=C1/C(=C/c2ccc(OCc3ccccc3)cc2)Cc2ccc(Cl)cc21` [compound 29, (E)-2-[4-(Benzyloxy)benzylidene]-6-chloro-2,3-dihydroinden-1-one], the melting point was 186 to 187 °C.
